pEC50: −log10 of the molar value.

For series [1], the system named is SARS-CoV-2-nLUC. Kind of series: microbe, parasite or virus in culture. The series is classed as cell-based. To be noted: VeroE6; 15 μM GGTI; 24 h.
In series [2] the test system is Huh7 cells. To be noted: initial screening.
Series [3] deals with HEK293A2T2 cells. To be noted: initial screening.
Series [4] has as its system VSV-SARS-CoV-2-S pseudovirus. Kind of series: microbe, parasite or virus in culture. It is filed as cell-based. To be noted: for pEC50: read-out: EC50.
The test system of series [5] is SARS-CoV-2. The series is classed as cell-based.

`Cc1nc[nH]c1CN1CCN(C(=O)N[C@@H](CC(C)C)C(=O)O)[C@@H](Cc2ccccc2)C1=O` [GGTI2418]: the “effect on viral replication” value in series [1] is on record as “no effect on viral replication”.

By CC50 is commonly meant the concentration giving 50% cytotoxicity. Take `CN1CCC(CN2c3ccccc3Sc3ccccc32)C1` (stereo not shown) [NCGC00014482]: the CC50 in series [2] and in series [3] was greater than 30 µM throughout.

One may read the pEC50 as the EC50 on a negative log10 scale, so that one unit is a factor of ten. In the case of `CCc1ccc2c(c1)N(CC(C)CN(C)C)c1ccccc1S2.Cl` (stereo not shown) [NCGC00014485], in series [4], the Max % came out at 90.9% and the pEC50 was 5.55.

As to `c1ccc2c(c1)Sc1ccccc1N2C[C@H]1CN2CCC1CC2` [NCGC00014679], in series [4], the Max % was determined as 100.0% and the pEC50 is 5.82.

For `CN1[C@@H]2CC[C@H]1CC(O[C@@H](c1ccccc1)c1ccc(Cl)cc1)C2` (stereo partly shown) [NCGC00015195], in series [4], the Max % is given as 100.0% and the pEC50 was 5.51.

With `CN(C)CC[C@H](c1ccc(Cl)cc1)c1ccccn1` [NCGC00015227], in series [4], the pEC50 is less than 4.52.

Regarding `Clc1ccc(Cn2c(CN3CCCC3)nc3ccccc32)cc1` [NCGC00015243], the negative logarithm of the EC50 (pEC50) in series [4] was less than 4.52.

For `C(=C/c1ccccc1)/CN1CCN(C(c2ccccc2)c2ccccc2)CC1` [NCGC00015246], in series [4], the Max % worked out at 65.8% and the pEC50 was less than 4.52. In series [2], this compound had a CC50 of 22 µM.

As for `CN1CCC(=C2c3ccccc3C=Cc3ccccc32)CC1` [NCGC00015252], in series [4], the Max % is 52.7% and the negative-log EC50 (pEC50) is 4.91.

Take `CN(C)CCCN1c2ccccc2Sc2ccc(Cl)cc21` [NCGC00015273]: in series [4], the negative-log EC50 (pEC50) was less than 4.52.

In series [4], `CN(C)CCOC(c1ccccc1)c1ccccc1` [NCGC00015335] had a Max % of 17.9%.

Take `CC(C)(C(=O)O)c1ccc([C@@H](O)CCCN2CCC(C(O)(c3ccccc3)c3ccccc3)CC2)cc1` [NCGC00015453]: the pEC50 in series [4] is less than 4.52.

Consider `CN1CCC(=C2c3ccccc3CC(=O)c3sccc32)CC1` [NCGC00015580], for which the negative-log EC50 (pEC50) in series [4] was less than 4.52.

For `CCOC(=O)N1CCC(=C2c3ccc(Cl)cc3CCc3cccnc32)CC1` [NCGC00015619], in series [4], the pEC50 is less than 4.52.

As to `CN(C)CCN(Cc1cccs1)c1ccccn1` [NCGC00015704], in series [4], the negative-log EC50 (pEC50) was less than 4.52.

Turning to `Cc1ccccc1[C@@H](OCCN(C)C)c1ccccc1` [NCGC00015771], in series [4], the Max % is reported as 25.1% and the pEC50 is less than 4.52.

Turning to `C[C@@H](CN1c2ccccc2Sc2ccccc21)N(C)C` [NCGC00015817], in series [4], the Max % was found to be 87.0% and the negative logarithm of the EC50 (pEC50) is 5.35.

Regarding `COc1ccc(CN(CCN(C)C)c2ccccn2)cc1` [NCGC00015822], in series [4], the Max % is reported as 49.2% and the pEC50 is less than 4.52.

`CN(C)CCCN1c2ccccc2Sc2ccccc21` [NCGC00015829]: the CC50 is 18.4 µM in series [2] and greater than 30 µM in series [3].

As to `CN1CCC(OC(c2ccccc2)c2ccccc2)CC1` [NCGC00016395], in series [4], the Max % stood at 51.1% and the pEC50 was 5.28.

As to `CN1CCN(C(c2ccccc2)c2ccccc2)CC1` [NCGC00016421], in series [4], the Max % stood at 58.1% and the pEC50 was 4.60. In series [2], this compound gave a CC50 greater than 30 µM.

Turning to `c1ccc(CN(CC2=NCCN2)c2ccccc2)cc1` [NCGC00016613], the negative-log EC50 (pEC50) in series [4] was less than 4.52.

Turning to `OC(CCCN1CCCCC1)(c1ccccc1)c1ccccc1` [NCGC00016624], in series [4], the Max % came out at 57.9% and the pEC50 was 4.89.

As for `CN(C)CCN(Cc1ccc(Cl)cc1)c1ccccn1` [NCGC00016672], in series [4], the Max % is reported as 77.6% and the pEC50 is 4.95.

With `CN1CCC[C@@H]1CCO[C@](C)(c1ccccc1)c1ccc(Cl)cc1` [NCGC00016710], the CC50 in series [2] and in series [3] was greater than 30 µM throughout.

As to `COc1ccc(CCN2CCC(Nc3nc4ccccc4n3Cc3ccc(F)cc3)CC2)cc1` [NCGC00016913], in series [4], the Max % came to 79.3% and the pEC50 was 5.08.

Regarding `C[C@@H]1CN(C2CCC(C#N)(c3ccc(F)cc3)CC2)CC[C@]1(C(=O)O)c1ccccc1.Cl` (stereo partly shown) [NCGC00016939], in series [4], the Max % came out at 37.9% and the negative-log EC50 (pEC50) was less than 4.52.

On to `Cl.Cl.O=C(O)COCCN1CCN(C(c2ccccc2)c2ccc(Cl)cc2)CC1` (stereo not shown) [NCGC00016949], for which, in series [4], the Max % stood at 29.7% and the pEC50 was less than 4.52. This compound also yielded a CC50 in series [2] greater than 30 µM.

Turning to `OCCOCCN1CCN([C@@H](c2ccccc2)c2ccc(Cl)cc2)CC1` [NCGC00018255], in series [4], the Max % stood at 26.3% and the negative logarithm of the EC50 (pEC50) is less than 4.00. Also, in series [2], the CC50 was greater than 30 µM.

For the compound `CN1CCCN([C@@H](c2ccccc2)c2ccc(Cl)cc2)CC1` [NCGC00018271], the cytotoxic concentration (CC50) in series [2] and in series [3] was greater than 30 µM in each case.

In the case of `Cc1cccc(CN2CCN([C@@H](c3ccccc3)c3ccc(Cl)cc3)CC2)c1` [NCGC00018296], in series [4], the Max % was determined as 54.8% and the pEC50 is less than 4.52.

Regarding `Cc1ccc(/C(=C/CN2CCCC2)c2ccccn2)cc1` [NCGC00024714], the pEC50 in series [4] is less than 4.52.

For `OC(c1ccccc1)(c1ccccc1)C1CN2CCC1CC2` (stereo not shown) [NCGC00160492], the negative-log EC50 (pEC50) in series [4] was less than 4.52.

In the case of `CN(C)CC[C@@H](c1ccc(Br)cc1)c1ccccn1` [NCGC00162100], in series [4], the Max % is 59.8% and the pEC50 was 4.63.

With `CC(C)(C)c1ccc(C(=O)CCCN2CCC(OC(c3ccccc3)c3ccccc3)CC2)cc1` [NCGC00164603], in series [4], the pEC50 is less than 4.52.

On to `NC1=NCC2c3ccccc3Cc3ccccc3N12` (stereo not shown) [NCGC00165791], for which the pEC50 in series [4] was less than 4.00.

`CN(C)CCOC(c1ccc(Cl)cc1)c1ccccn1` (stereo not shown) [NCGC00166141]: in series [4], the Max % turned out to be 35.5% and the pEC50 is 4.58.

As to `Cc1cccn2c(=O)c(-c3nnn[n-]3)cnc12.[K+]` [NCGC00167434], in series [4], the Max % turned out to be 24.2% and the pEC50 is less than 4.52.

Consider `CC(C)c1ccc2oc3nc(N)c(C(=O)O)cc3c(=O)c2c1` [NCGC00167472], for which, in series [4], the Max % is 59.8%.

Regarding `CN1CCCC(n2nc(Cc3ccc(Cl)cc3)c3ccccc3c2=O)CC1` (stereo not shown) [NCGC00177979], in series [4], the Max % is recorded as 96.4% and the pEC50 is 5.37.

For `COc1ccc(CN(CCN(C)C)c2ncccn2)cc1` [NCGC00178145], the pEC50 in series [4] was less than 4.52.

The compound `CN1CCN(C(c2ccccc2)c2ccc(Cl)cc2)CC1` (stereo not shown) [NCGC00179384] returned a CC50 in series [3] greater than 30 µM.

With `CN(c1nccc(=O)[nH]1)C1CCN(c2nc3ccccc3n2Cc2ccc(F)cc2)CC1` [NCGC00181013], the pEC50 in series [4] is less than 4.52.

For the compound `CC(CN1c2ccccc2Sc2cccnc21)N(C)C` (stereo not shown) [NCGC00181101], the negative-log EC50 (pEC50) in series [4] is less than 4.52.

With `Cc1ccc(C(=CCN2CCCC2)c2cccc(C=CC(=O)O)n2)cc1` [NCGC00182053], the pEC50 in series [4] is less than 4.52.

For the compound `CC(CN(C)C)CN1c2ccccc2S(=O)(=O)c2ccccc21` (stereo not shown) [NCGC00182075], the negative logarithm of the EC50 (pEC50) in series [4] was less than 4.52.

As to `CN1CCC(=C2c3ccccc3CCc3cccnc32)CC1` [NCGC00182705], in series [4], the Max % stood at 45.5% and the pEC50 is less than 4.52.

For `c1ccc2c(c1)Sc1ccccc1N2CC1CN2CCC1CC2` (stereo not shown) [NCGC00183046], the results for the CC50 in series [2] and in series [3] were 26.3 µM and greater than 30 µM, respectively.

In the case of `O=C(CCCN1CCN(c2ccc(F)cc2)CC1)NC1c2ccccc2CSc2ccccc21` (stereo not shown) [NCGC00183837], in series [4], the negative logarithm of the EC50 (pEC50) is less than 4.52.

Turning to `CN(C)CC/C=C1/c2ccccc2COc2ccc(CC(=O)O)cc21` [NCGC00263532], the pEC50 in series [4] was less than 4.52.

For the compound `Clc1ccc(C(c2ccccc2)N2CCNCC2)cc1` (stereo not shown) [NCGC00345879], in series [4], the Max % worked out at 100.0% and the pEC50 is 5.52. In series [2], this compound showed a cytotoxic concentration (CC50) of 28 µM.

Consider `COc1ccc(CN2CCN([C@@H](c3ccccc3)c3ccc(Cl)cc3)CC2)c(OC)c1` [NCGC00346845], for which, in series [4], the Max % was determined as 64.2% and the negative logarithm of the EC50 (pEC50) was 4.65. The same compound had a CC50 in series [2] of 24.6 µM.

In the case of `CN1CCC(N(c2ccccc2)c2ccc(OC(C)(C)C)cc2)CC1` [NCGC00346851], in series [4], the Max % is 68.3% and the pEC50 was 4.83. In series [2], this compound yielded a CC50 greater than 30 µM.

With `Clc1ccc([C@H](c2ccccc2)N2CCN(C3CCCCC3)CC2)cc1` [NCGC00347039], in series [4], the Max % amounted to 70.8% and the pEC50 was 5.40. For the same compound, the CC50 in series [2] came out at 14.1 µM.

`CC(C)N1CCN([C@@H](c2ccccc2)c2ccc(Cl)cc2)CC1` [NCGC00347044]: in series [4], the Max % is 90.9% and the pEC50 was 5.44.

`CC(=O)N1CCN([C@@H](c2ccccc2)c2ccc(Cl)cc2)CC1` [NCGC00347049]: the negative-log EC50 (pEC50) in series [4] was less than 4.00. Moreover, the half-maximal cytotoxic concentration (CC50) in series [2] was greater than 30 µM.

On to `FC(F)(F)CN1CCN([C@@H](c2ccccc2)c2ccc(Cl)cc2)CC1` [NCGC00351281], for which, in series [4], the Max % turned out to be 21.1% and the pEC50 is less than 4.00. Further, the half-maximal cytotoxic concentration (CC50) in series [2] is greater than 30 µM.

For `CN1CCN(C(c2ccc(Cl)cc2)c2ccc(Cl)cc2)CC1` [NCGC00351413], in series [4], the Max % amounted to 67.9% and the pEC50 is 5.59. In series [2], this compound returned a CC50 of 12.9 µM.

Turning to `CCN1CCN(C2c3ccccc3-c3ccc(Br)cc32)CC1` (stereo not shown) [NCGC00351673], in series [4], the Max % is on record as 77.7% and the negative logarithm of the EC50 (pEC50) is 4.55. Moreover, the CC50 in series [2] is greater than 30 µM.

In the case of `CN1CCC(N(c2ccccc2)c2ccccc2)CC1` [NCGC00351675], in series [4], the Max % stood at 17.1% and the pEC50 was less than 4.00. In series [2], this compound gave a CC50 greater than 30 µM.

`Clc1ccc(C(c2ccc(Cl)cc2)N2CCNCC2)cc1` [NCGC00354584]: in series [4], the Max % is 100.0% and the pEC50 is 5.70.

`Clc1ccc(C(c2ccc(Cl)cc2)N2CCOCC2)cc1` [NCGC00354586]: the pEC50 in series [4] was less than 4.00. The compound also displayed a CC50 in series [2] greater than 30 µM.

Take `C[C@@H]1O[C@@]2(CS1)CN1CCC2CC1` [NCGC00485995]: the negative-log EC50 (pEC50) in series [4] was 4.75.

On to `CN(C)C(=O)COC(=O)Cc1ccc(OC(=O)c2ccc(NC(=N)N)cc2)cc1` [camostat], for which the “time-of-addition result” value in series [5] was “only E64d, and not camostat, was effective in blocking the entry step”.

Source of the values: paper PMC11721293 (JCI Insight, 2025).
